Measured values taken from US8957074B2 (Novartis AG, priority 2010, dated 2015).
pIC50: −log10 of the molar value. Where two headings read alike, the source gives them in different places.

How the values were obtained:
[1] = biological target: CDK4/cyclin D1 (Homo sapiens (Human), UniProt P11802); assay: CDK4/cyclin D1 enzymatic activity assay (TR-FRET, phosphorylation of pRb at Ser780); format: biochemical; details: 0.3 nM CDK4/cyclin D1, 150 nM biotin-pRb (773-924), 3 μM ATP, 60 min at 22° C.; read-out: Biochemical CDK4 enzyme IC50
Procedure, shortened: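 Phosphorylation at pRb Ser780, detected by TR-FRET, gave IC50s and kinetics. Enzyme: baculovirus/Sf21-expressed human CDK4/cyclin D1. ATP at 3 μM initiated the reaction; EDTA (pH 8.0) stopped it after 60 min at 22° C.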

[2] = tested on: phosphorylation of pRb at the Ser780 site in JeKo-1 mantle cell lymphoma cells; assay: CDK4 cellular assay: ELISA of pRb phosphorylation at Ser780 in JeKo-1 cells; format: cell-based
[3] = biological target: CDK1/cyclin B (Homo sapiens (Human), UniProt P06493); assay: CDK1/cyclin B enzymatic activity assay (IMAP-FP); format: biochemical; details: 100 nM Tamra Histone-H1 peptide, 20 μM ATP, 120 min at room temperature, read-out: Biochemical CDK1 enzyme IC50
From the text: CDK1/Cyclin B Enzymatic Activity Assay
A 384-well microtiter IMAP-FP™ (Molecular Devices Trade Mark Technology) endpoint assay was used for CDK1/cyclin B kinase activity measurements. The same assay was used for IC50 determination of small molecule inhibitors.

[4] = Homo sapiens, JeKo-1 cells, p-pRb % inhibition adjusted with total pRb levels, read-out: Normalized cellular ppRb inhibition IC50
[5] = Homo sapiens, JeKo-1 cells, p-pRb Ser780 ELISA, non-normalized, read-out: Cellular ppRb inhibition IC50
[6] = Homo sapiens, JeKo-1, JeKo-1 cells, p-pRb % inhibition adjusted with total pRb levels, read-out: Normalized cellular ppRb inhibition IC50
[7] = Homo sapiens, JeKo-1, JeKo-1 cells, p-pRb Ser780 ELISA, non-normalized, read-out: Cellular ppRb inhibition IC50
[8] = Homo sapiens, JeKo-1, read-out: Cellular ppRb inhibition IC50
[9] = Homo sapiens, JeKo-1, read-out: Normalized cellular ppRb inhibition IC50

Sequence of CDK1/cyclin B (P06493 whole entry, species assumed): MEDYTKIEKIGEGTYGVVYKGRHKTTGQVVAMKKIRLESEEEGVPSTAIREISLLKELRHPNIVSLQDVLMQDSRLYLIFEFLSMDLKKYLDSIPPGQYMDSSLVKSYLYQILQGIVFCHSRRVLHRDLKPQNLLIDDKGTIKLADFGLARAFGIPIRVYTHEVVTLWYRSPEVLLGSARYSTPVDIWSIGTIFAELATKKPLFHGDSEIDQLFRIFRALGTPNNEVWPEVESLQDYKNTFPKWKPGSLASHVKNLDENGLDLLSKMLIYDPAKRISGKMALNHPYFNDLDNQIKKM
Sequence of CDK1/cyclin B (P14635 whole entry partner, species assumed): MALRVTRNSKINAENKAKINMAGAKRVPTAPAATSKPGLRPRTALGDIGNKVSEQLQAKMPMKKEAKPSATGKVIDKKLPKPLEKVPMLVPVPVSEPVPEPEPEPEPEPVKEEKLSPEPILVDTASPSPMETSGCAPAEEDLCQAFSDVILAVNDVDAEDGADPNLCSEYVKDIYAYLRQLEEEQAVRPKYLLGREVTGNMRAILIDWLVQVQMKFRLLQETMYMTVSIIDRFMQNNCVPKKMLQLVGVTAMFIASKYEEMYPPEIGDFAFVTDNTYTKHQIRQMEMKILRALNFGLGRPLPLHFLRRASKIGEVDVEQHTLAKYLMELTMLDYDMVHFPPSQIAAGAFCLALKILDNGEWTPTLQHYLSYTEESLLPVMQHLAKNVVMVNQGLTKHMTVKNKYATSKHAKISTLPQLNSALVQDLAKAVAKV
Sequence of CDK4/cyclin D1 (P11802 whole entry): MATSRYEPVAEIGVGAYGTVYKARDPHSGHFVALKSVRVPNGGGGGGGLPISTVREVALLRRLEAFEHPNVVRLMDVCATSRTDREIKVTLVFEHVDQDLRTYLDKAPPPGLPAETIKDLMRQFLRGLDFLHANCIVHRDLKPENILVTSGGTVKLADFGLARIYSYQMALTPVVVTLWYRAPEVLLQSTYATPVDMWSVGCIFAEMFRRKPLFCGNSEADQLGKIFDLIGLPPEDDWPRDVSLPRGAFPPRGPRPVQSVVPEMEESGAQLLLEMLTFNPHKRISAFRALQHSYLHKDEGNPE
Sequence of CDK4/cyclin D1 (P24385 whole entry partner): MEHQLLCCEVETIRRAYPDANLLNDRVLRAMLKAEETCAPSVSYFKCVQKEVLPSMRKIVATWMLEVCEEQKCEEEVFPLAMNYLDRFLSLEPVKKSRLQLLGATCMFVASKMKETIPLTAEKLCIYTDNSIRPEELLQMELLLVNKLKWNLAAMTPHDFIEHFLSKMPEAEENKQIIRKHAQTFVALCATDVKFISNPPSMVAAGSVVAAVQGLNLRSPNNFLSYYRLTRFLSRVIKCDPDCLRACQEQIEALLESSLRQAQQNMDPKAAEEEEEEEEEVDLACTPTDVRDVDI

| pIC50 [1] | pIC50 ([3]; […] CDK1/cyclin B) | Compound | pIC50 [2, 4] | pIC50 [2, 5] | pIC50 [2, 6] | pIC50 [2, 7] | pIC50 [2, 8] | pIC50 [2, 9] | pIC50 ([3]; 0.25 nM CDK1/cyclin B) | pIC50 ([2]; JeKo-1 cells, p-pRb % inhibition adjusted with total pRb levels, read-out: Normalized cellular ppRb inhibition IC50) | pIC50 ([2]; JeKo-1 cells, p-pRb Ser780 ELISA, non-normalized, read-out: Cellular ppRb inhibition IC50) |
| --- | --- | --- | --- | --- | --- | --- | --- | --- | --- | --- | --- |
| 7.82 | < 4.82 | CN(C)C(=O)c1cc2cnc(Nc3ccc(N4C[C@]5(CCCNCC5)OC4=O)cn3)nc2n1C1CCCC1 [Example 106, 7-Cyclopentyl-2-[5-((R)-2-oxo-1-oxa-3,8-diaza-spiro[4.6]undec-3-yl)-pyridin-2-ylamino]-7H-pyrrolo[2,3-d]pyrimidine-6-carboxylic acid dimethylamide] | 6.94 | 7.15 |  |  |  |  |  |  |  |
| 8.05 | < 4.82 | CN(C)C(=O)c1cc2cnc(Nc3ccc(N4CC5(CCCNC5)OC4=O)cn3)nc2n1C1CCCC1 (centres unmarked) [Example 107, 7-cyclopentyl-N,N-dimethyl-2-(5-(2-oxo-1-oxa-3,7-diazaspiro[4.5]decan-3-yl)pyridin-2-ylamino)-7H-pyrrolo[2,3-d]pyrimidine-6-carboxamide] | 6.94 to 7.43 | 7.31 to 7.89 |  |  |  |  |  |  |  |
| 7.89 | < 4.82 | CN1CCCC2(C1)CN(c1ccc(Nc3ncc4cc(C(=O)N(C)C)n(C5CCCC5)c4n3)nc1)C(=O)O2 (centres unmarked) [Example 108, 7-cyclopentyl-N,N-dimethyl-2-(5-(7-methyl-2-oxo-1-oxa-3,7-diazaspiro[4.5]decan-3-yl)pyridin-2-ylamino)-7H-pyrrolo[2,3-d]pyrimidine-6-carboxamide] |  |  | 7.16 | 7.21 |  |  |  |  |  |
| 7.92 | < 4.82 | CN(C)C(=O)c1cc2cnc(Nc3ccc(N4C[C@@]5(CCCNC5)OC4=O)cn3)nc2n1C1CCCC1 [Example 109, 7-Cyclopentyl-2-[5-((S)-2-oxo-1-oxa-3,7-diaza-spiro[4.5]dec-3-yl)-pyridin-2-ylamino]-7H-pyrrolo[2,3-d]pyrimidine-6-carboxylic acid dimethylamide] | 7.12 | 7.32 |  |  |  |  |  |  |  |
| 8.10 | < 4.82 | CN(C)C(=O)c1cc2cnc(Nc3ccc(N4C[C@]5(CCCNC5)OC4=O)cn3)nc2n1C1CCCC1 [Example 110, 7-Cyclopentyl-2-[5-((R)-2-oxo-1-oxa-3,7-diaza-spiro[4.5]dec-3-yl)-pyridin-2-ylamino]-7H-pyrrolo[2,3-d]pyrimidine-6-carboxylic acid dimethylamide] | 7.21 | 7.39 |  |  |  |  |  |  |  |
| 7.39 | 5.04 | CN(C)C(=O)c1cc2cnc(Nc3ccc(N4CC5CC4CN5)cn3)nc2n1C1CCCC1 (centres unmarked) [Example 111, 7-Cyclopentyl-2-[5-(2,5-diaza-bicyclo[2.2.1]hept-2-yl)-pyridin-2-ylamino]-7H-pyrrolo[2,3-d]pyrimidine-6-carboxylic acid dimethylamide] | 6.34 | 6.43 |  |  |  |  |  |  |  |
| 8.05 to 8.15 | < 4.82 | CN(C)C(=O)c1cc2cnc(Nc3ccc(N4CCC5(CCNCC5)C4=O)cn3)nc2n1C1CCCC1 [Example 117, 7-cyclopentyl-N,N-dimethyl-2-(5-(1-oxo-2,8-diazaspiro[4.5]decan-2-yl)pyridin-2-ylamino)-7H-pyrrolo[2,3-d]pyrimidine-6-carboxamide] |  |  |  |  |  |  |  | 7.09 to 7.29 | 7.17 to 7.40 |

The next lines start with the compound.

| Compound | pIC50 [1] | pIC50 ([3]; […] CDK1/cyclin B) | pIC50 [2, 4] | pIC50 [2, 5] | pIC50 [2, 6] | pIC50 [2, 7] | pIC50 [2, 8] | pIC50 [2, 9] | pIC50 ([3]; 0.25 nM CDK1/cyclin B) | pIC50 ([2]; JeKo-1 cells, p-pRb % inhibition adjusted with total pRb levels, read-out: Normalized cellular ppRb inhibition IC50) | pIC50 ([2]; JeKo-1 cells, p-pRb Ser780 ELISA, non-normalized, read-out: Cellular ppRb inhibition IC50) |
| --- | --- | --- | --- | --- | --- | --- | --- | --- | --- | --- | --- |
| CN(C)C(=O)c1cc2cnc(Nc3ccc(N4CCN5CCCCC5C4=O)cn3)nc2n1C1CCCCC1 (centres unmarked) [Example 100, 7-Cyclohexyl-2-[5-(1-oxo-octahydro-pyrido[1,2-a]pyrazin-2-yl)-pyridin-2-ylamino]-7H-pyrrolo[2,3-d]pyrimidine-6-carboxylic acid dimethylamide] | 7.46 | < 4.82 | 6.66 | 6.73 |  |  |  |  |  |  |  |
| CN(C)C(=O)c1cc2cnc(Nc3ccc(N4CC5(CC6CCC(C5)N6)OC4=O)cn3)nc2n1C1CCCC1 [Example 101, 7-cyclopentyl-N,N-dimethyl-2-(5-((1R,3r, 5S)-2′-oxo-8-azaspiro[bicyclo[3.2.1]octane-3,5′-oxazolidine]-3′-yl)pyridin-2-ylamino)-7H-pyrrolo[2,3-d]pyrimidine-6-carboxamide] | 7.70 | < 4.82 | 6.96 | 7.24 |  |  |  |  |  |  |  |
| CN(C)C(=O)c1cc2cnc(Nc3ccc(N4CC5(CC6CCC(C5)N6C)OC4=O)cn3)nc2n1C1CCCC1 [Example 102, 7-cyclopentyl-N,N-dimethyl-2-(5-((1R,3r,5S)-8-methyl-2′-oxo-8-azaspiro[bicyclo[3.2.1]octane-3,5′-oxazolidine]-3′-yl)pyridin-2-ylamino)-7H-pyrrolo[2,3-d]pyrimidine-6-carboxamide] | 7.74 | < 4.82 |  |  | 7.15 | 7.41 |  |  |  |  |  |
| CN(C)C(=O)c1cc2cnc(Nc3ccc(N4CC5(CCCNCC5)OC4=O)cn3)nc2n1C1CCCC1 (centres unmarked) [Example 103, 7-cyclopentyl-N,N-dimethyl-2-(5-(2-oxo-1-oxa-3,8-diazaspiro[4.6]undecan-3-yl)pyridin-2-ylamino)-7H-pyrrolo[2,3-d]pyrimidine-6-carboxamide] | 7.77 | < 4.82 | 6.77 to 7.19 | 7.14 to 7.62 |  |  |  |  |  |  |  |
| CN1CCCC2(CC1)CN(c1ccc(Nc3ncc4cc(C(=O)N(C)C)n(C5CCCC5)c4n3)nc1)C(=O)O2 (centres unmarked) [Example 104, 7-Cyclopentyl-2-[5-(8-methyl-2-oxo-1-oxa-3,8-diaza-spiro[4.6]undec-3-yl)-pyridin-2-ylamino]-7H-pyrrolo[2,3-d]pyrimidine-6-carboxylic acid dimethylamide] | 7.70 | < 4.82 | 7.19 | 7.54 |  |  |  |  |  |  |  |
| CN(C)C(=O)c1cc2cnc(Nc3ccc(N4C[C@@]5(CCCNCC5)OC4=O)cn3)nc2n1C1CCCC1 [Example 105, 7-Cyclopentyl-2-[5-((S)-2-oxo-1-oxa-3,8-diaza-spiro[4.6]undec-3-yl)-pyridin-2-ylamino]-7H-pyrrolo[2,3-d]pyrimidine-6-carboxylic acid dimethylamide] | 7.92 | < 4.82 | 7.00 | 7.21 |  |  |  |  |  |  |  |
| CN(C)C(=O)c1cc2cnc(Nc3ccc(N4CC5CCC(C4)N5)cn3)nc2n1C1CCCC1 [Example 112, 7-Cyclopentyl-2-[5-(3,8-diaza-bicyclo[3.2.1]oct-3-yl)pyridin-2-ylamino]-7H-pyrrolo[2,3-d]pyrimidine-6-carboxylic acid dimethylamide] | 7.47 to 7.96 | < 4.82 | 6.64 | 7.04 |  |  |  |  |  |  |  |
| CN(C)C(=O)c1cc2cnc(Nc3ccc(N4CCCC5(CCNCC5)C4=O)cn3)nc2n1C1CCCC1 [Example 114, 7-Cyclopentyl-2-[5-(1-oxo-2,9-diaza-spiro[5,5]undec-2-yl)-pyridin-2-ylamino]-7H-pyrrolo[2,3-d]pyrimidine-6-carboxylic acid dimethylamide] | 6.72 |  |  |  |  |  | 5.87 | 5.15 | < 4.82 |  |  |
| CN(C)C(=O)c1cc2cnc(Nc3ccc(N4CCN5CCCC5C4=O)cn3)nc2n1C1CCCC1 (centres unmarked) [Example 115] | 7.29 to 7.70 |  |  |  | 6.39 to 6.43 | 6.51 to 6.87 |  |  | < 4.82 |  |  |
| CN(C)C(=O)c1cc2cnc(Nc3ccc(N4CCN5CCCC5C4)cn3)nc2n1C1CCCC1 (centres unmarked) [Example 116, 7-cyclopentyl-2-(5-(hexahydropyrrolo[1,2-a]pyrazin-2(1H)-yl)pyridin-2-ylamino)-N,N-dimethyl-7H-pyrrolo[2,3-d]pyrimidine-6-carboxamide] | 6.96 | < 4.82 |  |  |  |  | 6.22 | 6.22 |  |  |  |
